Assay results as given in the supplement of paper PMC12076712.

Assays:
Assay in all cases: pIC50, kinobeads binding competition
Conditions in all cases: cell material: Jurkat lysate
[1] = biological target: T1, KSR1 (UniProt Q8IVT5)
T1 sequence (whole entry): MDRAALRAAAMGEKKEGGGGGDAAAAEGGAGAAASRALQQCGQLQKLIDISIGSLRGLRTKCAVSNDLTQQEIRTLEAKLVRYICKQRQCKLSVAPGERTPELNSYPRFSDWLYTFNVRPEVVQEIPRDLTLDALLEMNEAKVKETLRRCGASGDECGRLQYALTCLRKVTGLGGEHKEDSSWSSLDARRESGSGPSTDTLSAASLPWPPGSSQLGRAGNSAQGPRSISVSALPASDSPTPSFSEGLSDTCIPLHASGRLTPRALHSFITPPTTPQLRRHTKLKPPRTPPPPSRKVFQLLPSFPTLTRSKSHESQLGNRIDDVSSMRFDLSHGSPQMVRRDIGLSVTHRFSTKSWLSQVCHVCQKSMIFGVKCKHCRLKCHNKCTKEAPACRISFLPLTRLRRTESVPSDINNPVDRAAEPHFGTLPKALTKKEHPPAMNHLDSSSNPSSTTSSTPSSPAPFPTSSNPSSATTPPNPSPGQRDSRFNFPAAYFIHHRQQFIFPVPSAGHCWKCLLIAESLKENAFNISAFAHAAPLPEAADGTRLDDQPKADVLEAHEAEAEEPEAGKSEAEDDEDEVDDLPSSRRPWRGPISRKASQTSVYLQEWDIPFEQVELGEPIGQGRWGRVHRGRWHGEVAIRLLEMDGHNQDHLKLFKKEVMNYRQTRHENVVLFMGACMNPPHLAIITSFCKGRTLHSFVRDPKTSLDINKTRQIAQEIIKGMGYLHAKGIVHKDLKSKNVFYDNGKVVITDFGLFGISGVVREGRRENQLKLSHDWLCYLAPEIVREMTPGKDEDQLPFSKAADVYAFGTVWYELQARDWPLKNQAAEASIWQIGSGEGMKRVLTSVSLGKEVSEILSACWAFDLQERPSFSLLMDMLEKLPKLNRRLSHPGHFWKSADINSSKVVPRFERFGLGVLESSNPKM

[2] = biological target: MAPK11 (UniProt Q15759)
Sequence of MAPK11 (Q15759 whole entry): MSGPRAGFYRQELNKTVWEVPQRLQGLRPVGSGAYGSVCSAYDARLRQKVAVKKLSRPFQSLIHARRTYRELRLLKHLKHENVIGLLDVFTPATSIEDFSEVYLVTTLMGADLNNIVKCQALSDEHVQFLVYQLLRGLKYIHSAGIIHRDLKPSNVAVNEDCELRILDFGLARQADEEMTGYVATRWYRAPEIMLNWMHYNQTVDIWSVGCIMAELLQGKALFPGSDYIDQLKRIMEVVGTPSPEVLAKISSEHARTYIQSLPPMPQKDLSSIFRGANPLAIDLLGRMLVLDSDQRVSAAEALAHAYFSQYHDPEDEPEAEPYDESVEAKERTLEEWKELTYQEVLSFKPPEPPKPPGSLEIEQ

[3] = biological target: T2, SGK3 (UniProt Q96BR1)
T2 sequence (whole entry): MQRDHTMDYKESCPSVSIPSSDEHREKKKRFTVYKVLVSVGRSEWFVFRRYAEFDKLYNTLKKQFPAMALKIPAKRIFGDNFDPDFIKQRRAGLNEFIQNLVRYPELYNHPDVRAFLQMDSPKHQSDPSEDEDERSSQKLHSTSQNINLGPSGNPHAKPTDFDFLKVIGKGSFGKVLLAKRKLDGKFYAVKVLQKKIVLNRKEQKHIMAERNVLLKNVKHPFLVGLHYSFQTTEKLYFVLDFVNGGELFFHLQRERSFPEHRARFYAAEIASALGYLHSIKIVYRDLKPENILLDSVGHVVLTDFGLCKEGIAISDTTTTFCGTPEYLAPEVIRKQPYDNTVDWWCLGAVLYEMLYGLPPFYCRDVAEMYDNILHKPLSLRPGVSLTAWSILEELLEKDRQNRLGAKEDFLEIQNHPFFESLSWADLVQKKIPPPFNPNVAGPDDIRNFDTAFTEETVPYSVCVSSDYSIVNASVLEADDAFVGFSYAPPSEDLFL

[4] = biological target: STK33 (UniProt Q9BYT3)
[5] = biological target: T3, TP53RK (UniProt Q96S44)
T3 sequence (whole entry): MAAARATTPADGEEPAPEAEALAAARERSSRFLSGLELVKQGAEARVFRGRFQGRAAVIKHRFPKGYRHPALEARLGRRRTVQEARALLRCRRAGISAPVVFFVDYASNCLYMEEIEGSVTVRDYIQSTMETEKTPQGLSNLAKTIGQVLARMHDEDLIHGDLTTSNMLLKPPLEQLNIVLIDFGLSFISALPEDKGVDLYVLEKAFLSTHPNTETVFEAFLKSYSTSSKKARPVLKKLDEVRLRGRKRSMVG

[6] = biological target: TRRAP (UniProt Q9Y4A5)
[7] = biological target: UniProt O94804
Sequence of UniProt O94804 (O94804 whole entry, looked up): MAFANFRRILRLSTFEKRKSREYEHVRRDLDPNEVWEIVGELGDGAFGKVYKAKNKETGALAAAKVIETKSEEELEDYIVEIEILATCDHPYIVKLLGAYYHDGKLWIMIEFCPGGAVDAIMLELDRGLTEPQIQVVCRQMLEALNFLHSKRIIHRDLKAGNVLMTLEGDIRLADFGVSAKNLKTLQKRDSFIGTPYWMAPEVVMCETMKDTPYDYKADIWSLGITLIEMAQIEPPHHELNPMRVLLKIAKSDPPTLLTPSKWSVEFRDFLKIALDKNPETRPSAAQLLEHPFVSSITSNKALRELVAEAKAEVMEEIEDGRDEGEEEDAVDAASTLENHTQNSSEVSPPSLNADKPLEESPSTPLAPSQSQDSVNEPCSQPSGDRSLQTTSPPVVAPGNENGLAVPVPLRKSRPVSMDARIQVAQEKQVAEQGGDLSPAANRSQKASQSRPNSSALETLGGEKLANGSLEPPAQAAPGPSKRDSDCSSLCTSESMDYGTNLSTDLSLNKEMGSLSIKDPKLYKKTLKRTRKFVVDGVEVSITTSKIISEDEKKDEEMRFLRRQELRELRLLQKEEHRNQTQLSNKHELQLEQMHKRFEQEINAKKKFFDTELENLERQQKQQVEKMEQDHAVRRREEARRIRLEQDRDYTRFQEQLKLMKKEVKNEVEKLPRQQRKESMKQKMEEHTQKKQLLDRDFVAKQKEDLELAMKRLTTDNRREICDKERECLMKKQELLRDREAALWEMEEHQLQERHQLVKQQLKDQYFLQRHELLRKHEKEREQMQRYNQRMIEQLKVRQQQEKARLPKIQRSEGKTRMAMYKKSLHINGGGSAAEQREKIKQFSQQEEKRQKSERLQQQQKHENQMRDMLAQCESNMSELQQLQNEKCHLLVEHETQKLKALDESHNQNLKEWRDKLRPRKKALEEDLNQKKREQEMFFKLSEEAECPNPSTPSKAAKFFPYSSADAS

[8] = biological target: T4, UniProt P35626
T4 sequence (whole entry): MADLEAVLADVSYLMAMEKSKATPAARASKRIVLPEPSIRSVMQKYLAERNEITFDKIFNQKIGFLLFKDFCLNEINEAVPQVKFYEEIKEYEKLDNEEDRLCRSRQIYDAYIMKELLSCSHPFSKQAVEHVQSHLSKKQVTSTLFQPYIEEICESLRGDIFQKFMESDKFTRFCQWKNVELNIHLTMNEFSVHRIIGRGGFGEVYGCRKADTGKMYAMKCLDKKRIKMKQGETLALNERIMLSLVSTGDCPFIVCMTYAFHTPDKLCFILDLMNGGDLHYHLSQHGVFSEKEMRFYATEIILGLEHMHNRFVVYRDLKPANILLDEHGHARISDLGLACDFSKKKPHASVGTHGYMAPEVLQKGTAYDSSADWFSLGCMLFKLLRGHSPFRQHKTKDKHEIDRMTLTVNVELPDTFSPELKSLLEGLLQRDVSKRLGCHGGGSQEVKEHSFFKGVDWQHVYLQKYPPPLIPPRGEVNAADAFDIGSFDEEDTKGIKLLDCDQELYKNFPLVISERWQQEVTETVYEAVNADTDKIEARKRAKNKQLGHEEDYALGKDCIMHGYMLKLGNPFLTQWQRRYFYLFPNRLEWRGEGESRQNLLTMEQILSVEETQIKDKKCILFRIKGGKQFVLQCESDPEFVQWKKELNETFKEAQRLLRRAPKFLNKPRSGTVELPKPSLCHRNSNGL

[9] = biological target: UniProt Q14289
Sequence of UniProt Q14289 (Q14289 whole entry, looked up): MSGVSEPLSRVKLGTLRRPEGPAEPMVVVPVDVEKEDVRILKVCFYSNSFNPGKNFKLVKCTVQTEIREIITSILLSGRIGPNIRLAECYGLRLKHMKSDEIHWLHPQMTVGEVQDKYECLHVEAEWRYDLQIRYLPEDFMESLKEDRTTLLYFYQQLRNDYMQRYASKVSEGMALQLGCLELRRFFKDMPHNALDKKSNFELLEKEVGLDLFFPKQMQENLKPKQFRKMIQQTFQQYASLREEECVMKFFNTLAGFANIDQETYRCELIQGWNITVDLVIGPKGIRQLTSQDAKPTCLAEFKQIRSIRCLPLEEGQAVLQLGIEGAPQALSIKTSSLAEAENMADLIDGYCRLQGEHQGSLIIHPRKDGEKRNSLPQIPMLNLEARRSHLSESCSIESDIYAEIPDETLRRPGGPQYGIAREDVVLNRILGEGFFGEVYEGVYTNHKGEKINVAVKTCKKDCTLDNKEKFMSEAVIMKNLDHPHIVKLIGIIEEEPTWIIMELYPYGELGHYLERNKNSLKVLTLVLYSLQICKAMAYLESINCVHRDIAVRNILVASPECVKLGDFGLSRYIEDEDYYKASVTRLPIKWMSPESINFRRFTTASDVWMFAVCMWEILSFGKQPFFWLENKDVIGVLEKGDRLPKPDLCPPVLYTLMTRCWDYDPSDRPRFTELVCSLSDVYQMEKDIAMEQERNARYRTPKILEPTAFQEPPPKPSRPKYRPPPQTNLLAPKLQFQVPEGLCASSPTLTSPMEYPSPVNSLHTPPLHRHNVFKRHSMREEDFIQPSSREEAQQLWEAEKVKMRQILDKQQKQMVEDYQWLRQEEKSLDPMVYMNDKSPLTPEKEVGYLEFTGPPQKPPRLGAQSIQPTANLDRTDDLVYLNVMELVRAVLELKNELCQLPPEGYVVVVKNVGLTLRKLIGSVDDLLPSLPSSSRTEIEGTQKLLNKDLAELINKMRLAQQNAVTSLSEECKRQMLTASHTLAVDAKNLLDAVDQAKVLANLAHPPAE

[10] = biological target: UniProt Q16513
Sequence of UniProt Q16513 (Q16513 whole entry, looked up): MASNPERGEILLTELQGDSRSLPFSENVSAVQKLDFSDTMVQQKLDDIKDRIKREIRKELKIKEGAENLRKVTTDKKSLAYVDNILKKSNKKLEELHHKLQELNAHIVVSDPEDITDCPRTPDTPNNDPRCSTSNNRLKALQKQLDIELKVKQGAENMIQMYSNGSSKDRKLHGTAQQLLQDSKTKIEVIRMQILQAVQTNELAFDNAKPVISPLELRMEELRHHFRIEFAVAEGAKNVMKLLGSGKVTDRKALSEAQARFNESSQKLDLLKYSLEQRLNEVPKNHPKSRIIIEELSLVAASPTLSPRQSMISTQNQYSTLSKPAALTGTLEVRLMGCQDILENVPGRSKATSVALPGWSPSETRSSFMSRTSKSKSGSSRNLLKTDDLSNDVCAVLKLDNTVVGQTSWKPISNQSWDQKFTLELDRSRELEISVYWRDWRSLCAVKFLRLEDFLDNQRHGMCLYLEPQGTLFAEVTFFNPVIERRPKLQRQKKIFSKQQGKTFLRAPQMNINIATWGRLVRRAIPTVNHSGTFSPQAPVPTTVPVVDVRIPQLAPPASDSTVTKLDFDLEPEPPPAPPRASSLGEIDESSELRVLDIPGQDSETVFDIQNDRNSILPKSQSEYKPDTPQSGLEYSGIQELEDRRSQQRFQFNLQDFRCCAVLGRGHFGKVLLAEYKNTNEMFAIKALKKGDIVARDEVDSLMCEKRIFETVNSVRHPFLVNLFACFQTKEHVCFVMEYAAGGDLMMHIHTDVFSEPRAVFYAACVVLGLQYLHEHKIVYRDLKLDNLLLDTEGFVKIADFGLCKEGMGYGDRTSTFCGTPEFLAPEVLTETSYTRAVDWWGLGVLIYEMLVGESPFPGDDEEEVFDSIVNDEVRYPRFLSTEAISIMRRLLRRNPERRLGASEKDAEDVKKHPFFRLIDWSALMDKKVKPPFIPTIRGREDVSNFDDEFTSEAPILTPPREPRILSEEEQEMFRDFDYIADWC

[11] = biological target: UniProt Q5VT25
Sequence of UniProt Q5VT25 (Q5VT25 whole entry): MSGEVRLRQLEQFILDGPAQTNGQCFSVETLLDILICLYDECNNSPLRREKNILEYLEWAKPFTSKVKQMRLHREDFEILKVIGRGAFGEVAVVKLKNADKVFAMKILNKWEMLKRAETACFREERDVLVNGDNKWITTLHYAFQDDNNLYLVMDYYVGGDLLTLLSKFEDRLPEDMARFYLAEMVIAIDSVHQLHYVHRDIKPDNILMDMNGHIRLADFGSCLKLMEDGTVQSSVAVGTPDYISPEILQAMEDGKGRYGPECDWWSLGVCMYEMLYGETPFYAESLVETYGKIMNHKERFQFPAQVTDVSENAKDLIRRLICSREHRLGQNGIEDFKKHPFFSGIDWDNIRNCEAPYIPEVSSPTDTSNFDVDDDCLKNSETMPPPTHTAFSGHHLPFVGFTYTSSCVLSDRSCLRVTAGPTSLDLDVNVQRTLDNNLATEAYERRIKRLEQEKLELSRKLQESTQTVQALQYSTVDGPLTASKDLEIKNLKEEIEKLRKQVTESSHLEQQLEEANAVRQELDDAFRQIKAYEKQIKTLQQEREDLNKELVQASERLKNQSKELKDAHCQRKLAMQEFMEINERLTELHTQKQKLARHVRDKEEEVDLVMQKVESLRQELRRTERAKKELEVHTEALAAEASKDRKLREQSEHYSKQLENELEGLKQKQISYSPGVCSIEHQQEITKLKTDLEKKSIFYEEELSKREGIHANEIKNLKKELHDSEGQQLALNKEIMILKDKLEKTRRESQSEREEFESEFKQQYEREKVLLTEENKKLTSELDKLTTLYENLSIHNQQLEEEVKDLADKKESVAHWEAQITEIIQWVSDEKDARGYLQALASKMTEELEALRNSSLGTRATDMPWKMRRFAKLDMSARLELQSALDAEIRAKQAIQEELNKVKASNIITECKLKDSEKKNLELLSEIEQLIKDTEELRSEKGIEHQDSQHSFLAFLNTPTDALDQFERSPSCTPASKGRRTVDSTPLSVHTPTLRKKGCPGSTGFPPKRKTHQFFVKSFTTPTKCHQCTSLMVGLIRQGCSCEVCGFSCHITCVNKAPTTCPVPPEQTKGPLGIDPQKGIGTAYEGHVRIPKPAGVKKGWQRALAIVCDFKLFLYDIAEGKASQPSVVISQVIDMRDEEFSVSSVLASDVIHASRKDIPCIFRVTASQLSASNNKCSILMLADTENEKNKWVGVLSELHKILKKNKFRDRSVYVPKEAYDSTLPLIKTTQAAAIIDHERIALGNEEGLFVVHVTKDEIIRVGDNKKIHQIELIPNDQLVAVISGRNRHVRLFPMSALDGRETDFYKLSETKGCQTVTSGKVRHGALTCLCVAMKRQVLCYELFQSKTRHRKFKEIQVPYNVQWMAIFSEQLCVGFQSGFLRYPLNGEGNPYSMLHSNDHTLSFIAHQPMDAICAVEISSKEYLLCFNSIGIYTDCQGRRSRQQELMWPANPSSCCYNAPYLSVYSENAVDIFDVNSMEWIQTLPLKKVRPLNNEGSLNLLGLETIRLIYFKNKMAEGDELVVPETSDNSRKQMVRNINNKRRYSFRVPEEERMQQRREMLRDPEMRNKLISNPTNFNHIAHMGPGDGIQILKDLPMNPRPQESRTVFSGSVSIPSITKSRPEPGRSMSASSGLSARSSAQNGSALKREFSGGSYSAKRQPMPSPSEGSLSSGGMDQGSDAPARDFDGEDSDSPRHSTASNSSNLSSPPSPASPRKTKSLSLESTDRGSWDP

Measured: pIC50

CCc1cnn2c(NCc3ccc[n+]([O-])c3)cc(N3CCCC[C@H]3CCO)nc12 [dinaciclib]
< 4.52: all assays above
